Results as given in article PMC3914206.

How the values were obtained:
Format in all cases: binding
[1] = molecular target: T1, panel of 442 kinases (Homo sapiens, UniProt Q86V86); conditions: Compound Concentration 10 µM
T1 construct: purchased KINOMEscan
Text: (§1) We assessed the selectivity of members of this scaffold using the KINOMEscan methodology across a near comprehensive panel of 442 kinases [[18,27]].

[2] = molecular target: T2, panel of 442 kinases (Homo sapiens, UniProt P21127); conditions: Compound Concentration 10 µM
T2 construct: purchased KINOMEscan
Text: as §1

[3] = molecular target: T3, panel of 442 kinases (Homo sapiens, UniProt Q9Y4K4); conditions: Compound Concentration 10 µM
T3 construct: purchased KINOMEscan
Text: as §1

[4] = molecular target: T4, panel of 442 kinases (Homo sapiens, UniProt Q9H3Y6); conditions: kinase SRMS; compound concentration 10 µM
T4 construct: purchased KINOMEscan
Text: as §1

T4 sequence (Q9H3Y6 whole entry): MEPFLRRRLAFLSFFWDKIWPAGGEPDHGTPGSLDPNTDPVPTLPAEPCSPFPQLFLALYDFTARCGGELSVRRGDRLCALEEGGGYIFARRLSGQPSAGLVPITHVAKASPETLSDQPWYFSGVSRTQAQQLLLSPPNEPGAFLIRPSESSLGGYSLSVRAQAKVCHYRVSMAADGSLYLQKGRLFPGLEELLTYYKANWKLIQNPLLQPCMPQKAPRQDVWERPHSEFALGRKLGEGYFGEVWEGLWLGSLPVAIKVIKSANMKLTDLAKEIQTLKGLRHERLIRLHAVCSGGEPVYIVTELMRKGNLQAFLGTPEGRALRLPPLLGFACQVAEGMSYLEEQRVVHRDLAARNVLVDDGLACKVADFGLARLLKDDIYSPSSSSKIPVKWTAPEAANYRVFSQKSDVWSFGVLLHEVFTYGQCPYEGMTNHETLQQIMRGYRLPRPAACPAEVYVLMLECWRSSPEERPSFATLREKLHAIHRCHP
T2 sequence (P21127 whole entry): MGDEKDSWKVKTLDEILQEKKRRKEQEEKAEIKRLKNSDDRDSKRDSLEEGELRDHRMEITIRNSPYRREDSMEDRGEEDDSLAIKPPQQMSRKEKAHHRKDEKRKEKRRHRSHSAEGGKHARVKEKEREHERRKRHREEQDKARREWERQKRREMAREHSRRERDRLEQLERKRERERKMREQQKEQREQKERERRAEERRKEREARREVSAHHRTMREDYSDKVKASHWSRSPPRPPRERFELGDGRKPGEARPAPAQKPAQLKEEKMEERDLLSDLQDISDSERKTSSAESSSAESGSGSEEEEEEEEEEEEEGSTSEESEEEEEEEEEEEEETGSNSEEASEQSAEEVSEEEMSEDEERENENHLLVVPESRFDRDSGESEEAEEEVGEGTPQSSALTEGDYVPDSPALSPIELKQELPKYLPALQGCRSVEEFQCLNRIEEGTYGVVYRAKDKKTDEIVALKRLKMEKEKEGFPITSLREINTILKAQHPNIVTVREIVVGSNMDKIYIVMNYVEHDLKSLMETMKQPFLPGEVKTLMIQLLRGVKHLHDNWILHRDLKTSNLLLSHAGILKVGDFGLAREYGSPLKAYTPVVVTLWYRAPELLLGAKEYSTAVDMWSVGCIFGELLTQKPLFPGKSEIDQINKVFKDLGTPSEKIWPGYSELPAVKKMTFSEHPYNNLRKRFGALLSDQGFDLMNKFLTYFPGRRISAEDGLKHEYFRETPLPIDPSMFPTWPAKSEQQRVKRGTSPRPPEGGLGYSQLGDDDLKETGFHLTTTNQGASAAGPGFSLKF
T3 sequence (Q9Y4K4 whole entry): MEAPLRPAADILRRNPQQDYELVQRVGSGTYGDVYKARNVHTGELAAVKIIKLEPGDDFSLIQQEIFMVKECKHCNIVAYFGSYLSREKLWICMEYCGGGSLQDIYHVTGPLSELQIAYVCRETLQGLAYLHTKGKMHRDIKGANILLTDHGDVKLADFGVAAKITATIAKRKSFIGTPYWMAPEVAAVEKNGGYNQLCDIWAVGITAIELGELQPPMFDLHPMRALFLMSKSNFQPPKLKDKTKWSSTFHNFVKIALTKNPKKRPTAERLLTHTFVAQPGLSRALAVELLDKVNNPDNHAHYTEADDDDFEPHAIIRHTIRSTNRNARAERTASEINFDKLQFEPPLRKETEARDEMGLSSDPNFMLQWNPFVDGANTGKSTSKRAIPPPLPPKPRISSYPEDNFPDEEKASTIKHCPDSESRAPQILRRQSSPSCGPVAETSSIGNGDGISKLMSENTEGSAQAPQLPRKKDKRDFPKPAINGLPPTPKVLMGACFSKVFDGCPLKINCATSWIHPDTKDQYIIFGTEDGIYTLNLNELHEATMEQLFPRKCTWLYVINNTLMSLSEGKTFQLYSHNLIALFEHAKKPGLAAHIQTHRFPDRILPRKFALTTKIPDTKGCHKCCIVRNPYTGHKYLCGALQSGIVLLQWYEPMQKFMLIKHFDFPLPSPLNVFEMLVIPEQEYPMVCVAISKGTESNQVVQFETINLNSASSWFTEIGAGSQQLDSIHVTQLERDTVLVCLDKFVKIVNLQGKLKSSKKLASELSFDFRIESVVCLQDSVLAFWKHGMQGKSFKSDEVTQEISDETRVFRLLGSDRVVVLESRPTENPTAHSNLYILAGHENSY

Row | SMILES | KINOMEscan: PIM3 [1] | KINOMEscan: CDC2L1 [2] | KINOMEscan: MAP4K5 [3] | % Ctrl, SRMS [4]
1 | COc1cc(C(=O)N2CCC(N3CCN(C)CC3)CC2)ccc1Nc1ncc2c(n1)N(C)c1ccccc1C(=O)N2C [15 (LRRK2-IN-1)] | 88 | 84 | 100 | 77 % Ctrl
2 | COc1cc(C(=O)N2CCC(N3CCN(C)CC3)CC2)ccc1Nc1ncc2c(n1)N1CCc3cccc(c31)C(=O)N2C [Compound 24] | 67 |  | 72 | 100 % Ctrl
3 | COc1cc(C(=O)N2CCC(N3CCN(C)CC3)CC2)ccc1Nc1ncc2c(n1)N(C1CCCC1)c1ccccc1C(=O)N2C [Compound 25, 11-cyclopentyl-2-((2-methoxy-4-(4-(4-methylpiperazin-1-yl)piperidine-1-carbonyl)phenyl)amino)-5-methyl-5H-benzo[e]pyrimido[5,4-b][1,4]diazepin-6(11H)-one] | 78 | 81 | 96 | 100 % Ctrl
4 | CCOc1cc(C(=O)N2CCC(N3CCN(C)CC3)CC2)ccc1Nc1ncc2c(n1)N(C1CCCC1)c1ccccc1C(=O)N2C [Compound 26] | 100 | 100 | 95 | 82 % Ctrl
